Patent publication US10774064B2 (Cadent Therapeutics, Inc., priority 2016, dated 2020)

The molecules below were run against T1, small-conductance Ca2+-activated K+ channels (SK channels, subtype 2) (Homo sapiens, UniProt Q9H2S1) (assay: whole-cell patch-clamp of ionic current through SK2 channels in HEK293 cells (SC100)). Settings: whole-cell patch-clamp, HEK293 cells expressing SK2 channels; concentration that increases the basal current by 100%.
T1 construct: expressed in transfected cells; host or cells: HEK293
Type: cell-based
Procedure, shortened: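 Whole-cell patch-clamp recording of current in HEK293 cells expressing SK2 channels. SC100 is the compound concentration that increases basal current by 100%.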

Row | SC100 (μM) | Structure (SMILES)
1 | + (+ means >1 uM) | COC(=O)N1CC(Oc2cc(NC3CCC(F)(F)CC3)nc(-c3nc(C)no3)c2)C1 [NSSy5959]
2 | + (+ means >1 uM) | COC(=O)N1CC(Oc2cc(NC3CCC(F)(F)CC3)cc(-c3nc(C)cs3)c2)C1 [NSSy5972, methyl 3-(3-((4,4-difluorocyclohexyl)amino)-5-(4-methylthiazol-2-yl)phenoxy) azetidine-1-carboxylate]
3 | ++ (++ means 200 nM-1000 nM) | COC(=O)N1CC(Oc2cc(NC3CC=C(C)CC3)nc(-c3nc(C)cs3)c2)C1 (centres unmarked) [NSSy5980, methyl 3-((2-((4-methylcyclohex-3-en-1-yl)amino)-6-(4-methylthiazol-2-yl)pyridin-4-yl)oxy)azetidine-1-carboxylate]
4 | ++ (++ means 200 nM-1000 nM) | Cc1ccn(-c2cc(COc3ccc(F)cn3)cc(NC3CCC(F)(F)CC3)n2)n1 [NSSy5996]
5 | ++ (++ means 200 nM-1000 nM) | Cc1csc(-c2nc(NC3CCC(F)(F)CC3)cc(OC3CCCn4nncc43)n2)n1 (centres unmarked) [NSSy6007]
6 | ++ (++ means 200 nM-1000 nM) | Cc1ccn(-c2cc(CN3CCCC3=O)cc(NC3CCC(F)(F)CC3)n2)n1 [NSSy6019, 1-((2-((4,4-difluorocyclohexyl)amino)-6-(3-methyl-1H-pyrazol-1-yl)pyridin-4-yl)methyl)pyrrolidin-2-one]
7 | + (+ means >1 uM) | Cc1cc(CN2CCC(F)(F)CC2)cc(-c2nc(C)cs2)c1 [NSSy6044, 2-(3-((4,4-difluoropiperidin-1-yl)methyl)-5-methylphenyl)-4-methyl thiazole]
8 | + (+ means >1 uM) | [2H]c1c(NC2CCC(F)(F)CC2)nc(-c2nc(C)cs2)nc1OC1CN(C(=O)OC)C1 [NSSy6045, methyl 3-((6-((4,4-difluorocyclohexyl)amino)-2-(4-methylthiazol-2-yl)pyrimidin-4-yl-5-d)oxy) azetidine-1-carboxylate]
9 | + (+ means >1 uM) | COC(=O)N1CC(Oc2cc(NC3CCC(F)(F)CC3)nc(-c3nc(CO)cs3)n2)C1 [NSSy6049, methyl 3-((6-((4,4-difluorocyclohexyl)amino)-2-(4-(hydroxymethyl)thiazol-2-yl)pyrimidin-4-yl)oxy)azetidine-1-carboxylate]
10 | + (+ means >1 uM) | COC(=O)N1CC(Oc2cc(NC3CCC(F)(F)CC3)nc(N3CCCC3)n2)C1 [NSSy6054]
11 | +++ (+++ means <200 nM) | CC(=O)N1CCN(c2cc(NC3CCC(F)(F)CC3)nc(-c3nc(C)cs3)n2)CC1 [NSSy6055]
12 | ++ (++ means 200 nM-1000 nM) | Cc1csc(-c2nccc(NC3CCC(F)(F)CC3)n2)n1 [NSSy6056, N-(4,4-difluorocyclohexyl)-2-(4-methylthiazol-2-yl)pyrimidin-4-amine]
13 | + (+ means >1 uM) | COC(=O)N1CC(Oc2ccnc(-c3nc(C)cs3)n2)C1 [NSSy6057]
14 | + (+ means >1 uM) | COC(=O)N1CC(Oc2cc(NC3CCC(F)(F)CC3)ncn2)C1 [NSSy6061, methyl 3-((6-((4,4-difluorocyclohexyl)amino)pyrimidin-4-yl)oxy) azetidine-1-carboxylate]
15 | +++ (+++ means <200 nM) | Cc1csc(-c2nc(NC3CCC(F)(F)CC3)cc(N3CCS(=O)(=O)CC3)n2)n1 [NSSy6062]
16 | + (+ means >1 uM) | Cc1cnc(-c2nc(NC3CCC(F)(F)CC3)cc(N3CCOCC3)n2)s1 [NSSy6067, N-(4,4-difluorocyclohexyl)-2-(5-methylthiazol-2-yl)-6-morpholinopyrimidin-4-amine]
17 | + (+ means >1 uM) | COC(=O)N1CC(Oc2cc(NC3CCC(F)(F)CC3)[n+]([O-])c(-n3ccc(C)n3)n2)C1 [NSSy6072, 6-((4,4-difluorocyclohexyl)amino)-4-((1-(methoxycarbonyl)azetidin-3-yl)oxy)-2-(3-methyl-1H-pyrazol-1-yl)pyrimidine 1-oxide]
